Experimental findings from patent publication US20260102407A1, “TREATMENT METHODS” (priority 2020, published 2026) are described below.

The experiment has as its system ICAM-1. Kind of experiment: Collagen antibody-induced arthritis, hind limb immunohistochemistry for ICAM-1. In kind it is in vivo, mouse. The following applies: CAIA mice; Day 14 hind limbs. As to the method: Collagen antibody-induced arthritis. Arthritis was induced in female Balb/c mice (6-8 week-old) as previously described with a commercially obtained cocktail of 5 monoclonal antibodies to type II collagen at 2 mg/mouse (Chondrex, Inc. Redmond, WA) followed by LPS (50 μg/mouse) with or without BT2 (3 or 30 mg/kg mouse) in DMSO vehicle was administered i.p. on Day 3. Hind footpad thickness was measured on Day 9 using digital calipers. Mice were sacrificed on Day 14 and microCT scanning of hind limbs was performed.
Immmunohistochemical staining of hind limbs for VCAM-1 and ICAM-1 and analysis. Formalin-fixed, paraffin embedded of hind limbs were sectioned (5 μm). Dako EnVision Rabbit Kit (cat. K4011, Dako) was used for immmunohistochemical staining for VCAM-1 and ICAM-1. […] Integrated optical density (IOD) of positive staining in ankle joint (tibia and talus) articular cartilage was assessed for VCAM-1 and ICAM-1 using Image-Pro Plus software (Cybernetics, Bethesda, MD, USA). Area (μm^2) of ankle joint articular cartilage was measured using Image-Pro Plus software. Total cell number and positive staining cell number in ankle joint articular cartilage were counted manually using Image-Pro Plus software. […]

On to `CCOC(=O)Nc1ccc2c(c1)C(=O)N(CC)c1ccccc1O2` [BT2, (10-ethyl-11-oxo-10,11-dihydro-dibenzo[b,f][1,4]oxazepin-2-yl)-carbamic acid ethyl ester], for which the “ICAM-1 expression in bone” value was “inhibit VCAM-1 and ICAM-1 expression”.
